Data: patent publication US12589169B2, “Compound and MRI contrast agent containing same” (KYUNGPOOK NATIONAL UNIVERSITY INDUSTRY-ACADEMIC COOPERATION …, priority 2020, dated 2026)

Legend:
[1] = magnetic relaxation rates (MRI contrast effect); format: physicochemical; settings: magnetic relaxation rate; field strength not stated for Table 1
Method: In order to examine the MRI contrast effects of the compounds (Gd-suc, Gd-glu) and commercially available MRI contrast agents according to Examples of the present invention, the magnetic relaxation rates and lipophilicity were analyzed, and the results are shown in Table 1 below.
The magnetic relaxation rate (mM^−ls^−1) is a parameter indicating contrast efficiency per unit concentration, and in the case of a T1 contrast agent, the r2/r1 ratio is known to have a value of 0.5 to 1.5.

Balb/C mice = assay: in vivo MRI contrast effect (abdominal T1 weighted images); settings: 0.1 mmol/kg, 4.7 T, FIG. 14
Method: The liver-specific T1 contrast effect of the compounds (Gd-suc, Gd-glu) according to embodiments of the present invention and Primovist, a commercially available liver contrast agent, was evaluated in small animals (Balb/C mice, male, 5 w, 25 g, 0.1 mmol/kg) and confirmed through abdominal T1 weighted images (Bruker, 4.7 T), and the results are shown in FIGS. 12 to 15.

AML12 cell line = assay: in vitro cell-viability test (CCK method); format: cell-based; settings: AML12 normal hepatocytes, 24 hours; FIG. 16
Method: In order to confirm the presence or absence of cytotoxicity in normal hepatocytes, Gd-suc (i.e., a compound according to an embodiment of the present invention) and Primovist and Multihance (i.e., commercially available liver contrast agents) were treated on the AML12 cell line at various concentrations, and cell viability after 24 hours was analyzed by a known CCK method, and the results are shown in FIG. 16.

Row | SMILES | r1 [1] [mM^−ls^−1] | r2 [1] [mM^−ls^−1] | contrast enhancing effect in the gall bladder (Balb/C mice) | cytotoxicity (AML12 cell line)
1 | CNC(=O)CN(CCN(CCN(CC(=O)[O-])CC(=O)NC)CC(=O)[O-])CC(=O)[O-].[Gd+3] [Omniscan] | 3.58 ± 0.014 | 4.46 ± 0.024 | – | –
2 | CCOc1ccc(CN2CCN(CC(=O)[O-])CCN(C(CCC(=O)[O-])C(=O)[O-])CCN(CC(=O)[O-])CC2)cc1.[Gd+3] (stereo not shown) [Gd-glu] | 8.41 ± 0.084 | 9.92 ± 0.081 | exhibited a contrast enhancing effect in the gall bladder | –
3 | CCOc1ccc(CC(CN(CCN(CC(=O)[O-])CC(=O)[O-])CC(=O)[O-])N(CC(=O)[O-])CC(=O)[O-])cc1.[Gd+3].[Na+].[Na+] (stereo not shown) [Primovist] | 6.51 ± 0.040 | 7.31 ± 0.42 | – | significant cytotoxicity
4 | CC(O)CN1CCN(CC(=O)[O-])CCN(CC(=O)[O-])CCN(CC(=O)[O-])CC1.[Gd+3] (stereo not shown) [Prohance] | 3.58 ± 0.017 | 4.58 ± 0.071 | – | –

Continued, in another order:

Row | r1 [1] [mM^−ls^−1] | r2 [1] [mM^−ls^−1] | SMILES | contrast enhancing effect in the gall bladder (Balb/C mice) | cytotoxicity (AML12 cell line)
5 | 4.12 ± 0.028 | 4.60 ± 0.025 | O=C([O-])CN1CCN(CC(=O)[O-])CCN([C@H](CO)[C@H](O)CO)CCN(CC(=O)[O-])CC1.[Gd+3] (racemic) [Gadovist] | – | –
6 | 5.09 ± 0.015 | 6.79 ± 0.38 | CNC[C@H](O)[C@@H](O)[C@H](O)[C@H](O)CO.CNC[C@H](O)[C@@H](O)[C@H](O)[C@H](O)CO.O=C([O-])CN(CCN(CC(=O)[O-])CC(=O)O)CCN(CC(=O)O)C(COCc1ccccc1)C(=O)[O-].[Gd+3] (stereo not shown) [Multihance] | – | significant cytotoxicity
7 | 4.19 ± 0.014 | 4.75 ± 0.016 | CNC[C@H](O)[C@@H](O)[C@H](O)[C@H](O)CO.O=C([O-])CN1CCN(CC(=O)[O-])CCN(CC(=O)O)CCN(CC(=O)[O-])CC1.[Gd+3] [Dotarem, Gd-DOTA] | – | –
8 | 3.57 ± 0.007 | 4.95 ± 0.18 | CNC[C@H](O)[C@@H](O)[C@H](O)[C@H](O)CO.CNC[C@H](O)[C@@H](O)[C@H](O)[C@H](O)CO.O=C([O-])CN(CCN(CC(=O)[O-])CC(=O)O)CCN(CC(=O)[O-])CC(=O)O.[Gd+3] [Magnevist] | – | –
